Emax data for 18 compounds are collected here from US20080249077A1, “17.Beta.-Fluoromethoxycarbonyl-Androst-4-En-3-One Compounds With a 17.Alpha.-Carbonate Sustituent” (priority 2005, published 2008).

This experiment has as its target T1, glucocorticoid receptor (Homo sapiens, UniProt P04150).
T1 construct: A549 cells stably transfected with a reporter gene; endogenous in cells; host or cells: A549 cells
T1 sequence (P04150 1-777): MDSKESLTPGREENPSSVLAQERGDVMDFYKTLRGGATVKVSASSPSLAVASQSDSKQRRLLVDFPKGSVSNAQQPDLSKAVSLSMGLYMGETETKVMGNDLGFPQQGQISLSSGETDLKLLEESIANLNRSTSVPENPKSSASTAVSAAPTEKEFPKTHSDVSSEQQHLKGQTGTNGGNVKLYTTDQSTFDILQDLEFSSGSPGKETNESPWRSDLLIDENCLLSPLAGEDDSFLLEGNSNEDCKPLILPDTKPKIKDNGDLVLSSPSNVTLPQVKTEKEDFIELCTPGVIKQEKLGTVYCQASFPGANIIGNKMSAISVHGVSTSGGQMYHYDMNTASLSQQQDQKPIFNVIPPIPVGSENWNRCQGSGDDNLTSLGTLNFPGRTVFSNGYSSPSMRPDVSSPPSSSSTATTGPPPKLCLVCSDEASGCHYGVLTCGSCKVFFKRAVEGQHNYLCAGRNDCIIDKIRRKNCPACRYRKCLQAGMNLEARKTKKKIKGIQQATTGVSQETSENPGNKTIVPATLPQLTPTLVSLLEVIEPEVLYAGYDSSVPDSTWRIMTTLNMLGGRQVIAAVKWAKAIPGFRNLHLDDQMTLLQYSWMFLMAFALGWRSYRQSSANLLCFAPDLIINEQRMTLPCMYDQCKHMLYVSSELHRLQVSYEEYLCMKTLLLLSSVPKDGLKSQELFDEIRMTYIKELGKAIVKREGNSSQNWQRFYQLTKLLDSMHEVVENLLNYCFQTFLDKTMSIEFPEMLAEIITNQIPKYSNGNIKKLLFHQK
In words: Assay for transactivation activity of the glucocorticoid agonists (MMTV-LTR renilla luciferase reporter in A549 cells). The class given is cell-based. Conditions: compound 6 hour at 37° C., read-out: maximal response relative to Dexamethasone (100%) (transactivation). The procedure: Assay for Transactivation Activity of the Glucocorticoid Agonists
The functional assay based on that described by R. J. H. Austin et al., Eur Resp J. (2002), 20, 1386-1392 measures the ability of compounds to directly transactivate gene expression. A549 cells stably transfected with a reporter gene containing the glucocorticoid responsive region of the mouse mammary tumour virus long terminal repeat (MMTV-LTR) coupled to renilla luciferase were treated with test compounds at appropriate doses for 6 hour at 37° C. The amount of luciferase activity present within the cells is then determined by measuring the light emitted following incubation with a suitable substrate. Dose response curves were constructed from which EC50 values were estimated and from which maximal responses are calculated relative to Dexamethasone (100%).

`C[C@@H]1C[C@H]2[C@@H]3C[C@H](F)C4=CC(=O)C=C[C@]4(C)[C@@]3(F)[C@@H](O)C[C@]2(C)[C@@]1(OC(=O)O[C@@H]1C[C@@H]2CC[C@@]1(C)C2(C)C)C(=O)OCF` [Example 27, Fluoromethyl(6α,11β,16α,17α)-6,9-difluoro-11-hydroxy-16-methyl-3-oxo-17-[({[(1S,2R,4S)-1.7.7-trimethylbicyclo[2.2.1]hept-2-yl]oxy}carbonyl)oxy]androsta-1,4-diene-17-carboxylate]: the Emax is less than 25%.
For `C[C@@H]1C[C@H]2[C@@H]3C[C@H](F)C4=CC(=O)C=C[C@]4(C)[C@@]3(F)[C@@H](O)C[C@]2(C)[C@@]1(OC(=O)OC1CCCC1)C(=O)OCF` [Example 31, Fluoromethyl(6α,11β,16α,17α)-17-{[(cyclopentyloxy)carbonyl]oxy}-6,9-difluoro-11-hydroxy-16-methyl-3-oxoandrosta-1,4-diene-17-carboxylate] the value was less than 25%; for `C[C@@H]1C[C@H]2[C@@H]3C[C@H](F)C4=CC(=O)C=C[C@]4(C)[C@@]3(F)[C@@H](O)C[C@]2(C)[C@@]1(OC(=O)OC1CCCCCCC1)C(=O)OCF` [Example 16, Fluoromethyl(6α,11β,16α,17α)-17-{[(cyclooctyloxy)carbonyl]oxy}-6,9-difluoro-11-hydroxy-16-methyl-3-oxoandrosta-1,4-diene-17-carboxylate], less than 25%.
As to `CCC(OC(=O)O[C@]1(C(=O)OCF)[C@H](C)C[C@H]2[C@@H]3C[C@H](F)C4=CC(=O)C=C[C@]4(C)[C@@]3(F)[C@@H](O)C[C@@]21C)C1CCCC1` (stereo partly drawn) [Example 20, Fluoromethyl(6α,11β,16α,17α)-17-({[(1-cyclopentylpropyl)oxy]carbonyl}oxy)-6,9-difluoro-11-hydroxy-16-methyl-3-oxoandrosta-1,4-diene-17-carboxylate], the Emax is less than 25%.
Turning to `C[C@@H]1C[C@H]2[C@@H]3C[C@H](F)C4=CC(=O)C=C[C@]4(C)[C@@]3(F)[C@@H](O)C[C@]2(C)[C@@]1(OC(=O)O[C@H]1C(C)(C)[C@H]2CC[C@]1(C)C2)C(=O)OCF` [Example 33, Fluoromethyl(6α,11β,16α,17α)-6,9-difluoro-11-hydroxy-16-methyl-3-oxo-17-[({[(1R,2R,4S)-1,3,3-trimethylbicyclo[2.2.1]hept-2-yl]oxy}carbonyl)oxy]androsta-1,4-diene-17-carboxylate], the Emax was less than 25%.
`CCCC(OC(=O)O[C@]1(C(=O)OCF)[C@H](C)C[C@H]2[C@@H]3C[C@H](F)C4=CC(=O)C=C[C@]4(C)[C@@]3(F)[C@@H](O)C[C@@]21C)C(C)C` (stereo partly drawn) [Example 25, Fluoromethyl(6α,11β,16α,17α)-6,9-difluoro-11-hydroxy-16-methyl-17-[({[1-(1-methylethyl)butyl]oxy}carbonyl)oxy]-3-oxoandrosta-1,4-diene-17-carboxylate]: the Emax was less than 25%.
`CC(C)C1CCC(OC(=O)O[C@]2(C(=O)OCF)[C@H](C)C[C@H]3[C@@H]4C[C@H](F)C5=CC(=O)C=C[C@]5(C)[C@@]4(F)[C@@H](O)C[C@@]32C)CC1` (stereo partly drawn) [Example 11, Fluoromethyl(6α,11β,16α,17α)-6,9-difluoro-11-hydroxy-16-methyl-17-[({[4-(1-methylethyl)cyclohexyl]oxy}carbonyl)oxy]-3-oxoandrosta-1,4-diene-17-carboxylate]: the Emax was less than 25%.
In the case of `CC(OC(=O)O[C@]1(C(=O)OCF)[C@H](C)C[C@H]2[C@@H]3C[C@H](F)C4=CC(=O)C=C[C@]4(C)[C@@]3(F)[C@@H](O)C[C@@]21C)C1CCCC1` (stereo partly drawn) [Example 21, Fluoromethyl(6α,11β,16α,17α)-17-({[(1-cyclopentylethyl)oxy]carbonyl}oxy)-6,9-difluoro-11-hydroxy-16-methyl-3-oxoandrosta-1,4-diene-17-carboxylate], the Emax is less than 25%.
Take `CCCC(CCC)OC(=O)O[C@]1(C(=O)OCF)[C@H](C)C[C@H]2[C@@H]3C[C@H](F)C4=CC(=O)C=C[C@]4(C)[C@@]3(F)[C@@H](O)C[C@@]21C` [Example 22, Fluoromethyl(6α,11β,16α,17α)-6,9-difluoro-11-hydroxy-16-methyl-3-oxo-17-({[(1-propylbutyl)oxy]carbonyl}oxy)androsta-1,4-diene-17-carboxylate]: the Emax is less than 25%.
`C[C@@H]1C[C@H]2[C@@H]3C[C@H](F)C4=CC(=O)C=C[C@]4(C)[C@@]3(F)[C@@H](O)C[C@]2(C)[C@@]1(OC(=O)OCC1C(C)(C)C1(C)C)C(=O)OCF` [Example 24, Fluoromethyl(6α,11β,16α,17α)-6,9-difluoro-11-hydroxy-16-methyl-3-oxo-17-[({[(2,2,3,3-tetramethylcyclopropyl)methyl]oxy}carbonyl)oxy]androsta-1,4-diene-17-carboxylate]: the Emax is less than 25%.
For `CC(OC(=O)O[C@]1(C(=O)OCF)[C@H](C)C[C@H]2[C@@H]3C[C@H](F)C4=CC(=O)C=C[C@]4(C)[C@@]3(F)[C@@H](O)C[C@@]21C)C(C)(C)C` (stereo partly drawn) [Example 23, Fluoromethyl(6α,11β,16α,17α)-6,9-difluoro-11-hydroxy-16-methyl-3-oxo-17-({[(1,2,2-trimethylpropyl)oxy]carbonyl}oxy)androsta-14-diene-17-carboxylate], the Emax was less than 25%.
Take `CC[C@H]1CC[C@H](OC(=O)O[C@]2(C(=O)OCF)[C@H](C)C[C@H]3[C@@H]4C[C@H](F)C5=CC(=O)C=C[C@]5(C)[C@@]4(F)[C@@H](O)C[C@@]32C)CC1` (relative stereo) [Example 37, Fluoromethyl(6α,11β,16α,17α)-17-({[(trans-4-ethylcyclohexyl)oxy]carbonyl}oxy)-6,9-difluoro-11-hydroxy-16-methyl-3-oxoandrosta-1,4-diene-17-carboxylate]: the Emax was less than 25%.
Take `CC1CC2C3CC(F)C4=CC(=O)C=CC4(C)C3(F)C(O)CC2(C)C1(OC(=O)OC1CC2CCC1C2)C(=O)OCF` (stereo not drawn) [Example 12, Fluoromethyl(6α,11β,16α,17α)-17-({[(1RS,2RS,4SR)-bicyclo[2.2.1]hept-2-yloxy]carbonyl}oxy)-6,9-difluoro-11-hydroxy-16-methyl-3-oxoandrosta-1,4-diene-17-carboxylate]: the Emax was less than 25%.
On to `COC1CCCCC1OC(=O)OC1(C(=O)OCF)C(C)CC2C3CC(F)C4=CC(=O)C=CC4(C)C3(F)C(O)CC21C` (stereo not drawn) [Example 18, Fluoromethyl(6α,11β,16α,17α)-6,9-difluoro-11-hydroxy-16-methyl-17-[({[(1RS,2RS)-2-(methyloxy)cyclohexyl]oxy}carbonyl)oxy]-3-oxoandrosta-1,4-diene-17-carboxylate], for which the Emax is less than 25%.
With `CCC(CC)OC(=O)O[C@]1(C(=O)OCF)[C@H](C)C[C@H]2[C@@H]3C[C@H](F)C4=CC(=O)C=C[C@]4(C)[C@@]3(F)[C@@H](O)C[C@@]21C` [Example 4, Fluoromethyl(6α,11β,16α,17α)-17-({[(1-ethylpropyl)oxy]carbonyl}oxy)-6,9-difluoro-11-hydroxy-16-methyl-3-oxoandrosta-1,4-diene-17-carboxylate], the Emax is less than 25%.
As for `C[C@@H]1C[C@H](C)C[C@H](OC(=O)O[C@]2(C(=O)OCF)[C@H](C)C[C@H]3[C@@H]4C[C@H](F)C5=CC(=O)C=C[C@]5(C)[C@@]4(F)[C@@H](O)C[C@@]32C)C1` [Example 17, Fluoromethyl(6α,11β,16α,17α)-17-[({[(1S,3R,5S)-3,5-dimethylcyclohexyl]oxy}carbonyl)oxy]-6,9-difluoro-11-hydroxy-16-methyl-3-oxoandrosta-1,4-diene-17-carboxylate], the Emax is less than 25%.
On to `CC1CCCCC1OC(=O)OC1(C(=O)OCF)C(C)CC2C3CC(F)C4=CC(=O)C=CC4(C)C3(F)C(O)CC21C` (stereo not drawn) [Example 10, Fluoromethyl(6α,11β,16α,17α)-6,9-difluoro-11-hydroxy-16-methyl-17-[({[(1SR,2RS)-2-methylcyclohexyl]oxy}carbonyl)oxy]-3-oxoandrosta-1,4-diene-17-carboxylate], for which the Emax is less than 25%.
Consider `C[C@@H]1C[C@H]2[C@@H]3C[C@H](F)C4=CC(=O)C=C[C@]4(C)[C@@]3(F)[C@@H](O)C[C@]2(C)[C@@]1(OC(=O)OC1CCCC(C)(C)C1)C(=O)OCF` (stereo partly drawn) [Example 19, Fluoromethyl(6α,11β,16α,17α)-17-({[(3,3-dimethylcyclohexyl)oxy]carbonyl}oxy)-6,9-difluoro-11-hydroxy-16-methyl-3-oxoandrosta-1,4-diene-17-carboxylate], for which the Emax is less than 25%.
